The values that follow come from ChEMBL document CHEMBL1933034, “Synthesis, docking and in vitro antimalarial evaluation of bifunctional hybrids derived from β-lactams and 7-chloroquinoline using click chemistry” (Bioorg Med Chem Lett, 2012).

pIC50: −log10 of the molar value. Where only a bound is given, the exact number is not on record here.

The experiment deals with Plasmodium falciparum. Nature of the experiment: Antimalarial activity against chloroquine-resistant ring stage of Plasmodium falciparum W2 infected in human erythrocytes assessed as inhibition of parasitemia after 48 hrs by FACS analysis. The format is functional, organism-based. Particulars: W2, 48 h. Background: Flow cytometry measures light scatter and fluorescence of single cells or particles in a stream.
Turning to `O=C1[C@@H](N(Cc2cn(-c3ccnc4cc(Cl)ccc34)nn2)Cc2cn(-c3ccnc4cc(Cl)ccc34)nn2)[C@@H](/C=C/c2ccccc2)N1C1CCCCC1`, the pIC50 was 5.55.

For the compound `O=C1[C@@H](N(Cc2cn(-c3ccnc4cc(Cl)ccc34)nn2)Cc2cn(-c3ccnc4cc(Cl)ccc34)nn2)[C@@H](/C=C/c2ccccc2)N1c1ccccc1`, the pIC50 is 5.68.

As for `O=C1[C@@H](NCc2cn(-c3ccnc4cc(Cl)ccc34)nn2)[C@@H](/C=C/c2ccccc2)N1Cc1ccccc1`, the pIC50 was 5.23.

With `Cc1ccc(N2C(=O)[C@@H](N(Cc3cn(-c4ccnc5cc(Cl)ccc45)nn3)Cc3cn(-c4ccnc5cc(Cl)ccc45)nn3)[C@H]2/C=C/c2ccccc2)cc1`, the pIC50 is 5.82.

In the case of `O=C1[C@@H](NCc2cn(-c3ccnc4cc(Cl)ccc34)nn2)[C@@H](/C=C/c2ccccc2)N1c1ccccc1`, the pIC50 is 5.72.

Take `O=C1[C@@H](N(Cc2cn(-c3ccnc4cc(Cl)ccc34)nn2)Cc2cn(-c3ccnc4cc(Cl)ccc34)nn2)[C@@H](/C=C/c2ccccc2)N1Cc1ccccc1`: the pIC50 was 5.57.

Regarding `O=C1[C@@H](NCc2cn(-c3ccnc4cc(Cl)ccc34)nn2)[C@@H](/C=C/c2ccccc2)N1c1ccc(F)cc1`, the pIC50 is less than 5.00.

On to `O=C1[C@@H](N(Cc2cn(-c3ccnc4cc(Cl)ccc34)nn2)Cc2cn(-c3ccnc4cc(Cl)ccc34)nn2)[C@@H](/C=C/c2ccccc2)N1c1ccc(F)cc1`, for which the pIC50 is 5.96.

Regarding `O=C1[C@@H](NCc2cn(-c3ccnc4cc(Cl)ccc34)nn2)[C@@H](/C=C/c2ccccc2)N1C1CCCCC1`, the pIC50 is 5.37.

With `Cc1ccc(N2C(=O)[C@@H](NCc3cn(-c4ccnc5cc(Cl)ccc45)nn3)[C@H]2/C=C/c2ccccc2)cc1`, the pIC50 was less than 5.00.

For orientation: pIC50 means the negative decadic logarithm of the IC50, by convention in mol/L.
